Source: ChEMBL document CHEMBL5512659, “Structure optimizing of flavonoids against both MRSA and VRE” (Eur J Med Chem, 2024)
In brackets after ≈: the same amount, converted by molar mass.

Assays:
Enterococcus faecalis = test: Antibacterial activity against multidrug resistant Enterococcus faecalis ATCC 51299; format: functional
Staphylococcus aureus = test: Antibacterial activity against methicillin resistant Staphylococcus aureus clinical isolate 003; format: functional

## CCCCCc1c(-c2ccc(O)cc2O)oc2cc(O)cc(O)c2c1=O
Enterococcus faecalis
  MIC: 16 µg/mL (≈ 44.9 µM)
Staphylococcus aureus
  MIC: 16 µg/mL (≈ 44.9 µM)

## CCCCCCCCCCc1c(-c2ccc(O)cc2O)oc2cc(O)cc(O)c2c1=O
Enterococcus faecalis
  MIC: 32 µg/mL (≈ 75 µM)
Staphylococcus aureus
  MIC: 16 µg/mL (≈ 37.5 µM)

## CCCCCCc1c(-c2ccc(OC)cc2OC)oc2cc(OC)cc(OC)c2c1=O
Enterococcus faecalis
  MIC: > 64 µg/mL
Staphylococcus aureus
  MIC: > 64 µg/mL

## CC(C)=CCc1c(-c2ccc(O)c3c2OC(C)(C)C=C3)oc2cc(O)cc(O)c2c1=O [KUWANON A]
Enterococcus faecalis
  MIC: 10 µg/mL (≈ 23.8 µM)
Staphylococcus aureus
  MIC: 5 µg/mL (≈ 11.9 µM)

## CCCCCCc1c(-c2ccc(O)cc2O)oc2cc(O)cc(O)c2c1=O
Enterococcus faecalis
  MIC: 16 µg/mL (≈ 43.2 µM)
Staphylococcus aureus
  MIC: 8 µg/mL (≈ 21.6 µM)

## CCCCCCCCCCCCc1c(-c2ccc(OC)cc2OC)oc2cc(OC)cc(OC)c2c1=O
Enterococcus faecalis
  MIC: > 64 µg/mL
Staphylococcus aureus
  MIC: > 64 µg/mL

## O=c1c(CCCCc2ccccc2)c(-c2ccc(O)cc2O)oc2cc(O)cc(O)c12
Enterococcus faecalis
  MIC: 32 µg/mL (≈ 76.5 µM)
Staphylococcus aureus
  MIC: 16 µg/mL (≈ 38.2 µM)

## COc1ccc(-c2oc3cc(OC)cc(OC)c3c(=O)c2CCC=C(C)C)c(OC)c1
Enterococcus faecalis
  MIC: > 64 µg/mL
Staphylococcus aureus
  MIC: > 64 µg/mL

## CCc1c(-c2ccc(O)cc2O)oc2cc(O)cc(O)c2c1=O
Enterococcus faecalis
  MIC: > 64 µg/mL
Staphylococcus aureus
  MIC: > 64 µg/mL

## CCCCCc1c(-c2ccc(OC)cc2OC)oc2cc(OC)cc(OC)c2c1=O
Enterococcus faecalis
  MIC: > 64 µg/mL
Staphylococcus aureus
  MIC: > 64 µg/mL

## COc1cc(O)c2c(=O)c(CCCCc3ccccc3)c(-c3ccc(O)cc3O)oc2c1
Enterococcus faecalis
  MIC: 16 µg/mL (≈ 37 µM)
Staphylococcus aureus
  MIC: 8 µg/mL (≈ 18.5 µM)

## CCCCc1c(-c2ccc(O)cc2O)oc2cc(O)cc(O)c2c1=O
Enterococcus faecalis
  MIC: 32 µg/mL (≈ 93.5 µM)
Staphylococcus aureus
  MIC: 32 µg/mL (≈ 93.5 µM)

## CCc1c(-c2ccc(O)cc2O)oc2cc(OC)cc(O)c2c1=O
Enterococcus faecalis
  MIC: 64 µg/mL (≈ 195 µM)
Staphylococcus aureus
  MIC: > 64 µg/mL

## CC(C)=CCc1c(-c2ccc(O)cc2O)oc2c(CC=C(C)C)c(O)cc(O)c2c1=O [KUWANON C]
Enterococcus faecalis
  MIC: 10 µg/mL (≈ 23.7 µM)
Staphylococcus aureus
  MIC: 5 µg/mL (≈ 11.8 µM)

## CCCCCCCCCCc1c(-c2ccc(OC)cc2OC)oc2cc(OC)cc(OC)c2c1=O
Enterococcus faecalis
  MIC: > 64 µg/mL
Staphylococcus aureus
  MIC: > 64 µg/mL

## CC(C)=CCc1c(-c2ccc(O)cc2O)oc2c([C@H]3C=C(C)C[C@@H](c4ccc(O)cc4O)[C@@H]3C(=O)c3ccc(O)cc3O)c(O)cc(O)c2c1=O [KUMANON G]
Enterococcus faecalis
  MIC: 5 µg/mL (≈ 7.22 µM)
Staphylococcus aureus
  MIC: 5 µg/mL (≈ 7.22 µM)

## COc1ccc(-c2oc3cc(OC)cc(OC)c3c(=O)c2CCC/C=C(\C)CCC=C(C)C)c(OC)c1
Enterococcus faecalis
  MIC: > 64 µg/mL
Staphylococcus aureus
  MIC: > 64 µg/mL

## COc1cc(O)c2c(=O)c(CCC=C(C)C)c(-c3ccc(O)cc3O)oc2c1
Enterococcus faecalis
  MIC: 32 µg/mL (≈ 83.7 µM)
Staphylococcus aureus
  MIC: 16 µg/mL (≈ 41.8 µM)

## CCCCCCCCCCCCc1c(-c2ccc(O)cc2O)oc2cc(O)cc(O)c2c1=O
Enterococcus faecalis
  MIC: 64 µg/mL (≈ 141 µM)
Staphylococcus aureus
  MIC: 32 µg/mL (≈ 70.4 µM)

## CCCCCCCCCCCCc1c(-c2ccc(O)cc2O)oc2cc(OC)cc(O)c2c1=O
Enterococcus faecalis
  MIC: 32 µg/mL (≈ 68.3 µM)
Staphylococcus aureus
  MIC: 16 µg/mL (≈ 34.1 µM)

## CCCCCCCCCCCCCCCCc1c(-c2ccc(OC)cc2OC)oc2cc(OC)cc(OC)c2c1=O
Enterococcus faecalis
  MIC: > 64 µg/mL
Staphylococcus aureus
  MIC: > 64 µg/mL

## COc1cc(O)c2c(=O)c(CCC/C=C(\C)CCC=C(C)C)c(-c3ccc(O)cc3O)oc2c1
Enterococcus faecalis
  MIC: 32 µg/mL (≈ 68.9 µM)
Staphylococcus aureus
  MIC: 16 µg/mL (≈ 34.4 µM)

## CCc1c(-c2ccc(OC)cc2OC)oc2cc(OC)cc(OC)c2c1=O
Enterococcus faecalis
  MIC: > 64 µg/mL
Staphylococcus aureus
  MIC: > 64 µg/mL

## CCCCCCCCCCCCCCCCc1c(-c2ccc(O)cc2O)oc2cc(OC)cc(O)c2c1=O
Enterococcus faecalis
  MIC: 64 µg/mL (≈ 122 µM)
Staphylococcus aureus
  MIC: 32 µg/mL (≈ 61 µM)

## CCCc1c(-c2ccc(OC)cc2OC)oc2cc(OC)cc(OC)c2c1=O
Enterococcus faecalis
  MIC: > 64 µg/mL
Staphylococcus aureus
  MIC: > 64 µg/mL

## C=CCc1c(-c2ccc(O)cc2O)oc2cc(O)cc(O)c2c1=O
Enterococcus faecalis
  MIC: > 64 µg/mL
Staphylococcus aureus
  MIC: 64 µg/mL (≈ 196 µM)
